Laboratory results from ChEMBL document CHEMBL1201862, “PubChem BioAssay data set” (2004).
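Step 1: Grow cells in 96-well plates. Step 2: Expose to compound for 48 hours at 5 concentrations. Step 3: Interpolate endpoints linearly; if unreached, use highest concentration. GI50 = concentration required for 50% inhibition of growth.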 Calls of active or inactive are those of the source. Rule as the data show it: active = GI50 up to about 1.1 µM and inactive = higher.

Key:
Assay in all cases: NCI anticancer screen, dose series, 48 h
[1] = system: MDA-MB-435
[2] = system: Malme-3M
[3] = system: SNB-19
[4] = system: COLO 205
[5] = system: KM12
[6] = system: CAKI-1
[7] = system: UACC-62
[8] = system: SW-620
[9] = system: ACHN
[10] = system: SK-OV-3
[11] = system: IGROV-1
[12] = system: TK-10
[13] = system: MDA-N
[14] = system: Hs-578T
[15] = system: PC-3
[16] = system: A549
[17] = system: NCI-H226
[18] = system: M14
[19] = system: UO-31
[20] = system: HCT-116

| SMILES | GI50 [1] | GI50 [2] | GI50 [3] | GI50 [4] | GI50 [5] | GI50 [6] | GI50 [7] | GI50 [8] | GI50 [9] | GI50 [10] | GI50 [11] | GI50 [12] | GI50 [13] | GI50 [14] | GI50 [15] | GI50 [16] | GI50 [17] | GI50 [18] | GI50 [19] | GI50 [20] |
| --- | --- | --- | --- | --- | --- | --- | --- | --- | --- | --- | --- | --- | --- | --- | --- | --- | --- | --- | --- | --- |
| O=C1c2cccnc2-c2nccc3c2c1nc1cc(Br)ccc13 | 0.198 µM (active) | 0.108 µM (active) | 0.27 µM (active) | 0.798 µM (active) | 0.147 µM (active) | 0.218 µM (active) | 0.178 µM (active) | < 0.0264 µM (active) | 0.208 µM (active) | 0.239 µM (active) | 0.14 µM (active) | 0.979 µM (active) | 0.225 µM (active) | 0.204 µM (active) | 0.275 µM (active) | 0.122 µM (active) | 0.216 µM (active) | 0.0553 µM (active) | 0.221 µM (active) | 0.025 µM (active) |
| COc1cccc(Nc2n[nH]c(NS(=O)(=O)c3cc(C)c(Cl)cc3S)n2)c1 | > 100 µM (inactive) | > 100 µM (inactive) | > 100 µM (inactive) | > 100 µM (inactive) | > 100 µM (inactive) | > 100 µM (inactive) | > 100 µM (inactive) | > 100 µM (inactive) | > 100 µM (inactive) | > 100 µM (inactive) | > 100 µM (inactive) | > 100 µM (inactive) | > 100 µM (inactive) | > 100 µM (inactive) | > 100 µM (inactive) | > 100 µM (inactive) | > 100 µM (inactive) | > 100 µM (inactive) | > 100 µM (inactive) | > 100 µM (inactive) |
| COc1cc(C(=O)O)c([N+](=O)[O-])c(OC)c1OC | > 100 µM (inactive) | > 100 µM (inactive) | > 100 µM (inactive) | > 100 µM (inactive) | > 100 µM (inactive) | > 100 µM (inactive) | > 100 µM (inactive) | > 100 µM (inactive) | > 100 µM (inactive) | > 100 µM (inactive) | > 100 µM (inactive) | > 100 µM (inactive) | > 100 µM (inactive) | > 100 µM (inactive) | > 100 µM (inactive) | > 100 µM (inactive) | > 100 µM (inactive) | > 100 µM (inactive) | > 100 µM (inactive) | > 100 µM (inactive) |
| CC1=NN(c2nc(N)nc(-c3cc4ccccc4oc3=N)n2)C(C)(C)C1 | 19.7 µM (inactive) | 17.5 µM (inactive) | 32.7 µM (inactive) | 17 µM (inactive) | 17.7 µM (inactive) | 17.3 µM (inactive) | 16.2 µM (inactive) |  | 19 µM (inactive) | 18.8 µM (inactive) | 15.3 µM (inactive) | 23.4 µM (inactive) | 16.5 µM (inactive) | 20.5 µM (inactive) | 17.1 µM (inactive) | 19.5 µM (inactive) | 14.7 µM (inactive) | 20.6 µM (inactive) | 19.1 µM (inactive) | 19.6 µM (inactive) |
| COc1cc(Cc2cc3c(c(C(=O)O)c2Br)OCO3)cc(OC)c1OC | 49.9 µM (inactive) | 57.8 µM (inactive) | > 100 µM (inactive) | > 100 µM (inactive) | 39.9 µM (inactive) | > 100 µM (inactive) | 33.5 µM (inactive) | 69.2 µM (inactive) | > 100 µM (inactive) | > 100 µM (inactive) | > 100 µM (inactive) | > 100 µM (inactive) | 23.8 µM (inactive) | > 100 µM (inactive) | > 100 µM (inactive) | > 100 µM (inactive) | > 100 µM (inactive) | 70.8 µM (inactive) | > 100 µM (inactive) | 37 µM (inactive) |
| COC(=O)C1C2CC3C1C3C2C(=O)OC (centres undefined) | > 100 µM (inactive) | > 100 µM (inactive) | > 100 µM (inactive) | > 100 µM (inactive) | > 100 µM (inactive) | > 100 µM (inactive) | > 100 µM (inactive) | > 100 µM (inactive) | > 100 µM (inactive) | > 100 µM (inactive) | > 100 µM (inactive) | > 100 µM (inactive) | > 100 µM (inactive) | > 100 µM (inactive) | > 100 µM (inactive) | > 100 µM (inactive) | > 100 µM (inactive) | > 100 µM (inactive) | > 100 µM (inactive) | > 100 µM (inactive) |
